# According to patent US20230027066A1 (Urovant Sciences GmbH, priority 2019, published 2023):
# Assays:
# Format in all cases: in vivo, human
# [1] = Phase 2b study, vital sign (HR, SBP, DBP) changes and orthostatic AEs
# Source text: None led to discontinuation. The overall incidence of orthostatic symptoms was low.
# Small differences in the percent of subjects exceeding categorical heart rate and blood pressure thresholds for vibegron were similar to those in the tolterodine arm.
# [2] = system: men and women with overactive bladder; experiment: Phase 3 study (75 mg), patient-reported outcomes (OAB-q LF, PGI); design: OAB-q sleep score, improvement greater than placebo / HRQL Total Score, improvement greater than placebo / OAB-q HRQL Total Score, Active - Placebo LS Means Difference: scale not given here
# Source text: Patients completed paper questionnaires at the site at the start of each required study visit to assess patient-perceived symptom relief, symptom bother, and health-related quality of life at the study visits. […] These included the following questionnaires:
# 1. Global Impression Items include Patient Global Impression of Severity (PGI-Severity), Patient Global Impression of Control (PGI-Control), Patient Global Impression of Frequency (PGI-Frequency), Patient Global Impression of Leakage (PGI-Leakage), and Patient Global Impression of Change (PGI-Change).
# 2. Overactive Bladder Questionnaire (OAB-q long form [OAB-q LF], 1-week recall) is a 33-item patient-administered, disease-specific questionnaire that includes a Health-Related QoL (HRQL) scale (25 items) and a Symptom Bother Scale (8 items). The HRQL is a multidomain concept that represents the patient's general perception of the effect of illness and treatment on physical, psychological, and social aspects of life. […] In the present study, the HRQL scale is divided into 4 subscales: Coping, Concern/Worry, Sleep, and Social Interaction. The Coping subscale (also referred to as the coping domain score) was a secondary endpoint, with items scored from 1 (none of the time) to 6 (all the time), with higher scores indicating better QoL. The HRQL total score is calculated by summating the individual HRQL subscale scores. The Symptom Bother Scale items are scored from 1 (not at all) to 6 (a very great deal), with higher Symptom Bother scores indicating greater symptom severity. The instrument was developed and validated in both continent and incontinent OAB patients, including both men and women.
# With the exception of the symptom bother score, a responder was defined as having a change from baseline ≥10. For symptom bother score, a responder was defined as having a change from baseline […]. A higher proportion of patients represented a favorable response.
# [3] = Phase 3 study (75 mg), post-void residual urine volume (PVR)
# Source text: The risk of acute urinary retention or morbidities related to an increase in Post-Void Residual (PVR) is a concern with antimuscarinic therapy that promotes smooth muscle relaxation by inhibiting acetylcholine-induced smooth muscle contraction. If, during contraction, the bladder cannot generate enough pressure to overcome the outlet resistance in the urethra, either because of poor detrusor contractility or profound obstruction (most commonly from BPH), acute urinary retention or incomplete emptying of the bladder may result.
# The volume of urine that remains in the bladder after voiding (PVR) is an objective measurement that may serve as a proxy for impaired ability to void.
# PVR were performed via ultrasound at the visits indicated in the Schedule of Activities.
# [4] = 50% Total Incontinence Responders, Week 12
# [5] = Week 12, responder = change from baseline ≥10
# [6] = vibegron 75 mg/day, 12-week treatment
# [7] = Males with medical history of BPH
smiles,measurement,setting,value
"O=C(Nc1ccc(C[C@@H]2CC[C@H]([C@H](O)c3ccccc3)N2)cc1)[C@@H]1CCc2nccc(=O)n21 [Vibegron, (6S)-N-[4-[[(2S,5R)−5-[(R)-hydroxy(phenyl)methyl]pyrrolidin−2-yl]methyl]phenyl]−4-oxo−7,8-dihydro−6H-pyrrolo[1,2-a]pyrimidine−6-carboxamide]","DBP change from baseline, mean (95% CI) maximum, week 1 to 8",[1]; vibegron 3 mg,"5.03 (3.92, 6.15) mm Hg"
same,"DBP change from baseline, mean (95% CI), week 1",[1]; vibegron 3 mg,"−0.37 (−1.69, 0.95) mm Hg"
same,"HR change from baseline, mean (95% CI) maximum, week 1 to 8",[1]; vibegron 3 mg,"5.57 (4.25, 6.90) bpm"
same,"HR change from baseline, mean (95% CI), week 1",[1]; vibegron 3 mg,"0.36 (−0.90, 1.62) bpm"
same,"SBP change from baseline, mean (95% CI) maximum, week 1 to 8",[1]; vibegron 3 mg,"7.14 (5.18, 9.10) mm Hg"
same,"SBP change from baseline, mean (95% CI), week 1",[1]; vibegron 3 mg,"−0.35 (−2.34, 1.65) mm Hg"
same,"DBP change from baseline, mean (95% CI) maximum, week 1 to 8",[1]; vibegron 15 mg,"6.37 (5.20, 7.53) mm Hg"
same,"DBP change from baseline, mean (95% CI), week 1",[1]; vibegron 15 mg,"0.03 (−1.52, 1.59) mm Hg"
same,"HR change from baseline, mean (95% CI) maximum, week 1 to 8",[1]; vibegron 15 mg,"6.56 (5.20, 7.92) bpm"
same,"HR change from baseline, mean (95% CI), week 1",[1]; vibegron 15 mg,"0.35 (−1.15, 1.85) bpm"
same,"SBP change from baseline, mean (95% CI) maximum, week 1 to 8",[1]; vibegron 15 mg,"8.93 (7.18, 10.67) mm Hg"
same,"SBP change from baseline, mean (95% CI), week 1",[1]; vibegron 15 mg,"−0.34 (−2.46, 1.78) mm Hg"
same,subjects with orthostatic related AEs,[1]; vibegron 15 mg,0.3%
same,"DBP change from baseline, mean (95% CI) maximum, week 1 to 8",[1]; vibegron 50 mg,"4.19 (3.10, 5.29) mm Hg"
same,"DBP change from baseline, mean (95% CI), week 1",[1]; vibegron 50 mg,"−0.70 (−2.07, 0.67) mm Hg"
same,"HR change from baseline, mean (95% CI) maximum, week 1 to 8",[1]; vibegron 50 mg,"5.49 (4.28, 6.69) bpm"
same,"HR change from baseline, mean (95% CI), week 1",[1]; vibegron 50 mg,"0.29 (−0.88, 1.46) bpm"
same,"SBP change from baseline, mean (95% CI) maximum, week 1 to 8",[1]; vibegron 50 mg,"7.01 (5.31, 8.70) mm Hg"
same,"SBP change from baseline, mean (95% CI), week 1",[1]; vibegron 50 mg,"−0.79 (−2.65, 1.08) mm Hg"
same,"SBP and DBP, difference between placebo and vibegron in mean changes at Week 1 and mean maximum changes over 8 weeks",[1]; vibegron 50 mg and 100 mg,< 1 mm Hg
same,"DBP change from baseline, mean (95% CI) maximum, week 1 to 8",[1]; vibegron 100 mg,"4.80 (3.88, 5.72) mm Hg"
same,"DBP change from baseline, mean (95% CI), week 1",[1]; vibegron 100 mg,"−0.69 (−1.72, 0.34) mm Hg"
same,"HR change from baseline, mean (95% CI) maximum, week 1 to 8",[1]; vibegron 100 mg,"6.12 (5.10, 7.15) bpm"
same,"HR change from baseline, mean (95% CI), week 1",[1]; vibegron 100 mg,"0.35 (−0.69, 1.38) bpm"
same,"SBP change from baseline, mean (95% CI) maximum, week 1 to 8",[1]; vibegron 100 mg,"6.51 (5.09, 7.93) mm Hg"
same,"SBP change from baseline, mean (95% CI), week 1",[1]; vibegron 100 mg,"−0.77 (−2.22, 0.68) mm Hg"
same,percent of subjects with a change from baseline in DBP >15 mmHg,[1]; vibegron 100 mg,1.3%
same,subjects with orthostatic related AEs,[1]; vibegron 100 mg,1.1%
same,"HR, mean maximum changes over 8 weeks, difference to placebo","[1]; vibegron, all doses",< 2 bpm
same,"OAB-q Coping Subscore, Change from baseline at week 12, LS Means (SE)",[2]; [4],20.3 (1.35)
same,"OAB-q Coping Subscore, Mean",[2]; [4],83.08 (18.924)
same,"OAB-q Symptom Bother Subscore, Change from baseline at week 12, LS Means",[2]; [4],−25.5
same,"OAB-q Symptom Bother Subscore, Mean",[2]; [4],21.18
same,"Change from Baseline in PGI-Control, LS Mean","[2]; 75% UUI Responders, Week 4",−0.8 (0.06)
same,"PGI-Control, Mean (SD)","[2]; 75% UUI Responders, Week 4",2.42 (0.887)
same,"Change from Baseline in PGI-Control, LS Mean","[2]; 75% UUI Responders, Week 8",−1.0 (0.06)
same,"PGI-Control, Mean (SD)","[2]; 75% UUI Responders, Week 8",2.25 (0.863)
same,"Change from Baseline in PGI-Control, LS Mean","[2]; 75% UUI Responders, Week 12",−1.2 (0.06)
same,"OAB-q Coping Subscore, Change from baseline at week 12, LS Means (SE)","[2]; 75% UUI Responders, Week 12",19.7 (1.48)
same,"OAB-q Coping Subscore, Mean (SD)","[2]; 75% UUI Responders, Week 12",83.99 (19.232)
same,"OAB-q Symptom Bother Subscore, Change from Baseline at Week 12, LS Means (SE)","[2]; 75% UUI Responders, Week 12",−25.8 (1.38)
same,"OAB-q Symptom Bother Subscore, Mean (SD)","[2]; 75% UUI Responders, Week 12",20.13 (15.862)
same,"PGI-Control, Mean (SD)","[2]; 75% UUI Responders, Week 12",2.02 (0.784)
same,"OAB-q Concern Subscore, Week 12 Mean (SD)",[2]; Week 12,80.58 (21.867)
same,"OAB-q Concern responders, Difference from Placebo",[2]; Week 12,5.9
same,"OAB-q Concern, Active - Placebo LS Means Difference",[2]; Week 12,5.0
same,"OAB-q Concern, change from baseline LS Means (SE)",[2]; Week 12,15.3 (1.24)
same,"OAB-q Coping Score, Active - Placebo LS Means Difference",[2]; Week 12,3.6
same,"OAB-q Coping Score, change from baseline LS Means (SE)",[2]; Week 12,16.5 (1.31)
same,"OAB-q Coping Sub score, Week 12 Mean (SD)",[2]; Week 12,77.26 (23.242)
same,"OAB-q Coping responders, Difference from Placebo",[2]; Week 12,7.5
same,"OAB-q HRQL Total Score, Active - Placebo LS Means Difference",[2]; Week 12,3.8
same,"OAB-q HRQL Total Score, change from baseline LS Means (SE)",[2]; Week 12,14.6 (1.12)
same,"OAB-q Sleep Subscore, Week 12 Mean (SD)",[2]; Week 12,75.59 (23.883)
same,"OAB-q Sleep responders, Difference from Placebo",[2]; Week 12,2.1
same,"OAB-q Sleep, Active - Placebo LS Means Difference",[2]; Week 12,4.5
same,"OAB-q Sleep, change from baseline LS Means (SE)",[2]; Week 12,14.9 (1.34)
same,"OAB-q Social Interaction Subscore, Week 12 Mean (SD)",[2]; Week 12,88.57 (18.011)
same,"OAB-q Social Interaction responders, Difference from Placebo",[2]; Week 12,5.4
same,"OAB-q Social Interaction, Active - Placebo LS Means Difference",[2]; Week 12,1.5
same,"OAB-q Social Interaction, change from baseline LS Means (SE)",[2]; Week 12,10.2 (0.97)
same,"OAB-q Symptom Bother Subscore, Week 12 Mean (SD)",[2]; Week 12,27.78 (19.816)
same,"OAB-q Symptom Bother responders, Difference from Placebo",[2]; Week 12,11.8
same,"OAB-q Symptom Bother, Active - Placebo LS Means Difference",[2]; Week 12,−6.9
same,"OAB-q Symptom Bother, change from baseline LS Means (SE)",[2]; Week 12,−19.6 (1.24)
same,"OAB-q Total HRQL Score, Week 12 Mean (SD)",[2]; Week 12,80.12 (20.175)
same,"OAB-q Total HRQL responders, Difference from Placebo",[2]; Week 12,5.5
same,"OAB-q Symptom Bother responders, %","[2]; Week 12, responder = change from baseline ≤−10",(70.1) %
same,"OAB-q Concern responders, %",[2]; [5],(55.7) %
same,"OAB-q Coping responders, %",[2]; [5],(61.9) %
same,"OAB-q Sleep responders, %",[2]; [5],(53.9) %
same,"OAB-q Total HRQL responders, %",[2]; [5],(54.1) %
same,"HRQL Total Score, improvement greater than placebo",[2]; [6],3.8
same,"OAB-q coping domain score, improvement greater than placebo",[2]; [6],3.6
same,"OAB-q sleep score, improvement greater than placebo",[2]; [6],4.5
same,"OAB-q symptom bother score, decrease more than placebo",[2]; [6],6.9
same,"PVR category at Week 12 <100 mL, patients",[3]; Females,96.8%
same,"PVR category at Week 12 ≥100 mL to <200 mL, patients",[3]; Females,3.0%
same,"PVR category at Week 12 ≥200 mL to <350 mL, patients",[3]; Females,0.2%
same,"PVR category at Week 12 ≥350 mL, patients",[3]; Females,0
same,"PVR, Mean Change from Baseline at Week 12 (SD)",[3]; Females,0.1 (36.19) mL
same,"PVR category at Week 12 <100 mL, patients",[3]; Males,89.7%
same,"PVR category at Week 12 ≥100 mL to <200 mL, patients",[3]; Males,7.7%
same,"PVR category at Week 12 ≥200 mL to <350 mL, patients",[3]; Males,2.6%
same,"PVR category at Week 12 ≥350 mL, patients",[3]; Males,0
same,"PVR, Mean Change from Baseline at Week 12 (SD)",[3]; Males,2.2 (48.45) mL
same,"PVR category at Week 12 <100 mL, patients",[3]; [7],96.6%
same,"PVR category at Week 12 ≥100 mL to <200 mL, patients",[3]; [7],0%
same,"PVR category at Week 12 ≥200 mL to <350 mL, patients",[3]; [7],3.4%
same,"PVR category at Week 12 ≥350 mL, patients",[3]; [7],0
same,"PVR, Mean Change from Baseline at Week 12 (SD)",[3]; [7],−3.4 (42.45) mL
same,"PVR category at Week 12 <100 mL, patients",[3]; all patients,89.9%
same,"PVR category at Week 12 ≥100 mL to <200 mL, patients",[3]; all patients,3.5%
same,"PVR category at Week 12 ≥200 mL to <350 mL, patients",[3]; all patients,0.6%
same,"PVR category at Week 12 ≥350 mL, patients",[3]; all patients,0
same,"PVR, Mean Change from Baseline at Week 12 (SD)",[3]; all patients,0.4 (38.27) mL
